Assay results as given in publication PMC4745082, “A Novel PET Imaging Probe for the Detection and Monitoring of Translocator Protein 18 kDa Expression in Pathological Disorders” (Scientific Reports, 2016).
“Also recorded” adds a separate entry of the source.

Tests used:
[1] = Ex vivo tissue distribution in normal ICR mice; conditions: for tissue radioactivity, Adrenal / tissue radioactivity, Blood / tissue radioactivity, Brain / tissue radioactivity, Femur / tissue radioactivity, Heart / tissue radioactivity, Kidney / tissue radioactivity, L. Intestine / tissue radioactivity, Liver / tissue radioactivity, Lung / tissue radioactivity, Muscle / tissue radioactivity, S. Intestine / tissue radioactivity, Spleen / tissue radioactivity, Stomach: normal ICR mice, tail-vein injection
Procedure: Purified [^18F]CB251 was reconstituted in a 10% ethanol-saline solution. Animals were killed at various times after tail-vein injection of [^18F]CB251 (0.74 MBq/0.2 mL per mouse) and the radioactivity concentrations were measured in various tissues upon dissection. […] The radioactivity concentration in the femur remained low for 120 min (1.19 ± 0.50%ID/g at 5 min post injection; 1.49 ± 0.80%ID/g at 120 min post injection).
Tissue distribution studies were performed in normal male ICR mice (7 weeks, 25-30 g) with tail-vein administration of [^18F]CB251 (0.74 MBq/mouse) dissolved in 10% ethanol in saline to a final volume of 200 μL. The animals (n = 5 for each time point) were euthanised with diethyl ether at 5, 15, 30, 60 and 120 min post injection. After the mice were euthanised, blood and other organs such as the heart, liver, lung, stomach, spleen, kidney, intestine, muscle, brain, adrenal and femur were removed, weighed and counted for radioactivity in a NaI (Tl) well counter (Wizard^TM3”, PerkinElmer). The injected dose was calculated from standards prepared from the injection solution. The accumulated radioactivity of all tissues is presented as the percentage of the injected dose per gram of tissue (%ID/g). All animal studies were performed with the approval of the Institutional Animal Care and Use Committee of the Seoul National University Bundang Hospital (SNUBH) and the methods were carried out in accordance with the approved guidelines.

[2] = molecular target: TSPO (Rattus norvegicus, UniProt P16257); assay: microPET in LPS-induced neuroinflammation rat model; type: in vivo; parameters: from tissue; host or cells: Living rat brain (ipsilateral and contralateral striatum), LPS-injected Sprague-Dawley rats
Procedure: Male Sprague-Dawley rats weighing 200–250 g were used for the brain inflammation model and neuroinflammation was induced using lipopolysaccharide (LPS; Sigma-Aldrich, St. Louis, MO, U.S.A.) as previously described. In all rats used for sequential PET scans, microglia activation between the ipsilateral and contralateral areas was determined by CD68 immunohistochemical staining.
Five LPS-induced neuroinflammation rats (219.2 ± 14.1 g) were used for brain PET imaging at 4 days post-LPS injection. Before the scan, the rats were anesthetized with 2% isoflurane in a 7:3 mixture of N2/O2. PET imaging of the rat brain was performed in a dedicated small animal PET/CT (NanoPET/CT, Bioscan, Inc., U.S.A.) with a 10-cm axial field-of-view (FOV) and a 12-cm transaxial FOV. […] To determine the TSPO selectivity and TSPO specificity of the PET images, flumazenil (5 mg/kg intravenously) was administered at 15 min post [^18F]CB251 injection via jugular catheter. Subsequently, PBR28 (5 mg/kg intravenously) was injected 30 min later via jugular catheter in the same LPS-induced neuroinflammation rat model. Three human glioblastoma U87-MG-bearing mice were used for TSPO-rich cancer PET imaging. PET scans of the mice, anesthetized with 2% isoflurane, were performed with a 9.3-cm axial, 8.4-cm trans-axial FOV scanner. At the end of each study, the list-mode data were sorted into a dynamic scan consisting of 54 frames for 90 min. The acquired images were reconstructed by the 3-D Adjoints Monte Carlo method, which included scatter and random corrections. A region of interest (ROI) with a 2-mm radius was delineated in the ipsilateral lesioned striatum by the intensely visualized region in the summed image of all the frames. Regional uptake of radioactivity was decay-corrected to the injection time and was expressed as the standardized uptake value (SUV), which was normalized to the injected radioactivity and animal body weight. Analysis of the PET images was performed using PMOD software v.3.1 (PMOD Technologies Ltd., Zurich, Switzerland). The time activity curve (TAC) representing the variation in radioligand concentration according to the time-course was estimated for the ipsilateral striatum.

Sequence of TSPO (P16257 whole entry): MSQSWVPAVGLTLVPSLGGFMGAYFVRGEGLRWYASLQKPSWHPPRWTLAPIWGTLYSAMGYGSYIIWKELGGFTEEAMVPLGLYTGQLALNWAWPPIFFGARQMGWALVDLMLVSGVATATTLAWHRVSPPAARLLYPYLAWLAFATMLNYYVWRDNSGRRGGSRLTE

## CCCN(CCC)C(=O)Cc1c(-c2ccc(OCC[18F])cc2)nc2c(Cl)cc(Cl)cn12 [[^18F]CB251, 2-(2-(4-(2-[^18F]fluoroethoxy)phenyl)-6,8-dichloroimidazo[1,2-a]pyridin-3-yl)-N,N-dipropylacetamide]
[1]; healthy mice, summary bound in text, indicates negligible defluorination
  uptake of radioactivity in the femur: < 2 %ID/g
[1]; male, ICR, mouse, in vivo
  uptake in TSPO-enriched tissues: > 22 %ID/g
[1]; 5 min post injection
  tissue radioactivity, Adrenal: 19.06 ± 5.48 %ID/g
  tissue radioactivity, Blood: 4.39 ± 0.78 %ID/g
  tissue radioactivity, Brain: 2.89 ± 0.23 %ID/g
  tissue radioactivity, Femur: 1.19 ± 0.50 %ID/g
  tissue radioactivity, Heart: 29.49 ± 2.36 %ID/g
  tissue radioactivity, Kidney: 22.17 ± 1.63 %ID/g
  tissue radioactivity, L. Intestine: 1.54 ± 0.19 %ID/g
  tissue radioactivity, Liver: 4.69 ± 0.66 %ID/g
  tissue radioactivity, Lung: 106.4 ± 8.61 %ID/g
  tissue radioactivity, Muscle: 0.83 ± 0.34 %ID/g
  tissue radioactivity, S. Intestine: 3.30 ± 0.73 %ID/g
  tissue radioactivity, Spleen: 17.63 ± 3.38 %ID/g
  tissue radioactivity, Stomach: 1.86 ± 0.48 %ID/g
[1]; 15 min post injection
  tissue radioactivity, Adrenal: 22.60 ± 5.00 %ID/g
  tissue radioactivity, Blood: 2.17 ± 0.40 %ID/g
  tissue radioactivity, Brain: 1.94 ± 0.24 %ID/g
  tissue radioactivity, Femur: 1.25 ± 0.41 %ID/g
  tissue radioactivity, Heart: 24.16 ± 4.67 %ID/g
  tissue radioactivity, Kidney: 24.55 ± 5.11 %ID/g
  tissue radioactivity, L. Intestine: 1.53 ± 0.13 %ID/g
  tissue radioactivity, Liver: 6.67 ± 1.10 %ID/g
  tissue radioactivity, Lung: 65.70 ± 11.3 %ID/g
  tissue radioactivity, Muscle: 1.19 ± 0.22 %ID/g
  tissue radioactivity, S. Intestine: 4.54 ± 0.60 %ID/g
  tissue radioactivity, Spleen: 25.11 ± 2.16 %ID/g
  tissue radioactivity, Stomach: 2.13 ± 0.77 %ID/g
[1]; 30 min post injection
  tissue radioactivity, Adrenal: 19.73 ± 3.42 %ID/g
  tissue radioactivity, Blood: 1.24 ± 0.26 %ID/g
  tissue radioactivity, Brain: 1.39 ± 0.13 %ID/g
  tissue radioactivity, Femur: 1.94 ± 0.36 %ID/g
  tissue radioactivity, Heart: 23.11 ± 5.16 %ID/g
  tissue radioactivity, Kidney: 23.19 ± 5.68 %ID/g
  tissue radioactivity, L. Intestine: 1.69 ± 0.21 %ID/g
  tissue radioactivity, Liver: 8.19 ± 1.59 %ID/g
  tissue radioactivity, Lung: 38.36 ± 3.97 %ID/g
  tissue radioactivity, Muscle: 2.01 ± 0.34 %ID/g
  tissue radioactivity, S. Intestine: 4.43 ± 0.90 %ID/g
  tissue radioactivity, Spleen: 23.27 ± 3.52 %ID/g
  tissue radioactivity, Stomach: 1.84 ± 0.49 %ID/g
[1]; 60 min post injection
  tissue radioactivity, Adrenal: 12.69 ± 5.62 %ID/g
  tissue radioactivity, Blood: 0.60 ± 0.12 %ID/g
  tissue radioactivity, Brain: 0.63 ± 0.24 %ID/g
  tissue radioactivity, Femur: 1.41 ± 0.64 %ID/g
  tissue radioactivity, Heart: 10.47 ± 4.50 %ID/g
  tissue radioactivity, Kidney: 14.55 ± 5.74 %ID/g
  tissue radioactivity, L. Intestine: 1.37 ± 0.56 %ID/g
  tissue radioactivity, Liver: 6.80 ± 2.64 %ID/g
  tissue radioactivity, Lung: 17.69 ± 5.77 %ID/g
  tissue radioactivity, Muscle: 1.52 ± 0.59 %ID/g
  tissue radioactivity, S. Intestine: 3.43 ± 1.35 %ID/g
  tissue radioactivity, Spleen: 14.24 ± 4.47 %ID/g
  tissue radioactivity, Stomach: 0.98 ± 0.41 %ID/g
[1]; 120 min post injection
  tissue radioactivity, Adrenal: 14.78 ± 8.26 %ID/g
  tissue radioactivity, Blood: 0.64 ± 0.26 %ID/g
  tissue radioactivity, Brain: 0.53 ± 0.23 %ID/g
  tissue radioactivity, Femur: 1.49 ± 0.80 %ID/g
  tissue radioactivity, Heart: 8.62 ± 4.57 %ID/g
  tissue radioactivity, Kidney: 15.60 ± 8.55 %ID/g
  tissue radioactivity, L. Intestine: 2.09 ± 1.07 %ID/g
  tissue radioactivity, Liver: 7.17 ± 2.99 %ID/g
  tissue radioactivity, Lung: 13.22 ± 6.10 %ID/g
  tissue radioactivity, Muscle: 1.45 ± 0.65 %ID/g
  tissue radioactivity, S. Intestine: 3.78 ± 1.96 %ID/g
  tissue radioactivity, Spleen: 13.82 ± 5.17 %ID/g
  tissue radioactivity, Stomach: 1.97 ± 0.95 %ID/g
[2]; 30 min post injection
  uptake ratio between the ipsilateral area and the contralateral area: 2.35 times
[2]; displacement, PBR28 5 mg/kg intravenously 30 min after flumazenil
  uptake of [18F]CB251 in the ipsilateral area after PBR28 injection: decreased significantly; also recorded: significantly decreased
[2]; displacement, flumazenil 5 mg/kg intravenously at 15 min post injection
  uptake of [18F]CB251 in the ipsilateral region after flumazenil: did not prevent the uptake
[2]; ipsilateral striatum, contralateral striatum as reference, Logan plot with reference tissue input
  binding potential of the specifically bound radioligand relative to the non-displaceable radioligand in tissue (BPND): 1.83 ± 0.18
[2]; summed microPET images
  uptake in the skull: no significant uptake
